Laboratory results reported in PubChem BioAssay (NCI).
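Cultured in 96-well plates, cells were exposed to test compound for 48 hours across five concentrations. Definition used: TGI = concentration required for complete inhibition of growth.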

How the values were obtained:
Assay in all cases: growth of human tumour cells (NCI), 48 h
786-0 renal = system: 786-0 renal
A498 renal = system: A498 renal
A549 NSCLC = system: A549 NSCLC
ACHN renal = system: ACHN renal
CAKI-1 renal = system: CAKI-1 renal
CCRF-CEM leukemia = system: CCRF-CEM leukemia
COLO 205 colon = system: COLO 205 colon
DLD-1 colon = system: DLD-1 colon
DMS 114 small cell lung = system: DMS 114 small cell lung
DMS 273 small cell lung = system: DMS 273 small cell lung
EKVX NSCLC = system: EKVX NSCLC
HCC-2998 colon = system: HCC-2998 colon
HCT-116 colon = system: HCT-116 colon
HCT-15 colon = system: HCT-15 colon
HL-60(TB) leukemia = system: HL-60(TB) leukemia
HOP-18 NSCLC = system: HOP-18 NSCLC
HOP-62 NSCLC = system: HOP-62 NSCLC
HOP-92 NSCLC = system: HOP-92 NSCLC
HT29 colon = system: HT29 colon
IGROV1 ovarian = system: IGROV1 ovarian
K-562 leukemia = system: K-562 leukemia
KM12 colon = system: KM12 colon
KM20L2 colon = system: KM20L2 colon
LOX IMVI melanoma = system: LOX IMVI melanoma
LXFL 529 NSCLC = system: LXFL 529 NSCLC
M14 melanoma = system: M14 melanoma
M19-MEL melanoma = system: M19-MEL melanoma
MALME-3M melanoma = system: MALME-3M melanoma
MOLT-4 leukemia = system: MOLT-4 leukemia
NCI-H226 lung = system: NCI-H226 lung
NCI-H23 lung = system: NCI-H23 lung
NCI-H460 lung = system: NCI-H460 lung
NCI-H522 lung = system: NCI-H522 lung
OVCAR-3 ovarian = system: OVCAR-3 ovarian
OVCAR-4 ovarian = system: OVCAR-4 ovarian
OVCAR-5 ovarian = system: OVCAR-5 ovarian
OVCAR-8 ovarian = system: OVCAR-8 ovarian
RPMI-8226 leukemia = system: RPMI-8226 leukemia
RXF 393 renal = system: RXF 393 renal
SF-268 CNS = system: SF-268 CNS
SF-295 CNS = system: SF-295 CNS
SF-539 CNS = system: SF-539 CNS
SK-MEL-2 melanoma = system: SK-MEL-2 melanoma
SK-MEL-28 melanoma = system: SK-MEL-28 melanoma
SK-MEL-5 melanoma = system: SK-MEL-5 melanoma
SK-OV-3 ovarian = system: SK-OV-3 ovarian
SN12C renal = system: SN12C renal
SNB-19 CNS = system: SNB-19 CNS
SNB-75 CNS = system: SNB-75 CNS
SW-620 colon = system: SW-620 colon
TK-10 renal = system: TK-10 renal
U251 CNS = system: U251 CNS
UACC-62 melanoma = system: UACC-62 melanoma
XF 498 CNS = system: XF 498 CNS
SNB-78 CNS = system: SNB-78 CNS
SR leukemia = system: SR leukemia
UACC-257 melanoma = system: UACC-257 melanoma
UO-31 renal = system: UO-31 renal

Cc1ccc2c(CC(=O)O)cc(=O)oc2c1
TGI (786-0 renal): > 100 µM
TGI (A498 renal): > 100 µM
TGI (A549 NSCLC): > 100 µM
TGI (ACHN renal): > 100 µM
TGI (CAKI-1 renal): > 100 µM
TGI (CCRF-CEM leukemia): > 100 µM
TGI (COLO 205 colon): > 100 µM
TGI (DLD-1 colon): > 100 µM
TGI (DMS 114 small cell lung): > 100 µM
TGI (DMS 273 small cell lung): > 100 µM
TGI (EKVX NSCLC): > 100 µM
TGI (HCC-2998 colon): > 100 µM
TGI (HCT-116 colon): > 100 µM
TGI (HCT-15 colon): > 100 µM
TGI (HL-60(TB) leukemia): > 100 µM
TGI (HOP-18 NSCLC): > 100 µM
TGI (HOP-62 NSCLC): > 100 µM
TGI (HOP-92 NSCLC): > 100 µM
TGI (HT29 colon): > 100 µM
TGI (IGROV1 ovarian): > 100 µM
TGI (K-562 leukemia): > 100 µM
TGI (KM12 colon): > 100 µM
TGI (KM20L2 colon): > 100 µM
TGI (LOX IMVI melanoma): > 100 µM
TGI (LXFL 529 NSCLC): > 100 µM
TGI (M14 melanoma): > 100 µM
TGI (M19-MEL melanoma): > 100 µM
TGI (MALME-3M melanoma): > 100 µM
TGI (MOLT-4 leukemia): > 100 µM
TGI (NCI-H226 lung): > 100 µM
TGI (NCI-H23 lung): > 100 µM
TGI (NCI-H460 lung): > 100 µM
TGI (NCI-H522 lung): > 100 µM
TGI (OVCAR-3 ovarian): > 100 µM
TGI (OVCAR-4 ovarian): > 100 µM
TGI (OVCAR-5 ovarian): > 100 µM
TGI (OVCAR-8 ovarian): > 100 µM
TGI (RPMI-8226 leukemia): > 100 µM
TGI (RXF 393 renal): > 100 µM
TGI (SF-268 CNS): > 100 µM
TGI (SF-295 CNS): > 100 µM
TGI (SF-539 CNS): > 100 µM
TGI (SK-MEL-2 melanoma): > 100 µM
TGI (SK-MEL-28 melanoma): > 100 µM
TGI (SK-MEL-5 melanoma): > 100 µM
TGI (SK-OV-3 ovarian): > 100 µM
TGI (SN12C renal): > 100 µM
TGI (SNB-19 CNS): > 100 µM
TGI (SNB-75 CNS): > 100 µM
TGI (SW-620 colon): > 100 µM
TGI (TK-10 renal): > 100 µM
TGI (U251 CNS): > 100 µM
TGI (UACC-62 melanoma): > 100 µM
TGI (XF 498 CNS): 9.18 µM

CC(C)(C)N=CN(C=C(c1ccccc1)c1ccccc1)C1CCCCC1
TGI (786-0 renal): > 100 µM
TGI (A498 renal): 91.4 µM
TGI (A549 NSCLC): > 100 µM
TGI (ACHN renal): > 100 µM
TGI (CAKI-1 renal): > 100 µM
TGI (CCRF-CEM leukemia): > 100 µM
TGI (COLO 205 colon): > 100 µM
TGI (DLD-1 colon): > 100 µM
TGI (DMS 114 small cell lung): 55.3 µM
TGI (DMS 273 small cell lung): > 100 µM
TGI (EKVX NSCLC): > 100 µM
TGI (HCT-116 colon): > 100 µM
TGI (HCT-15 colon): > 100 µM
TGI (HOP-18 NSCLC): > 100 µM
TGI (HOP-62 NSCLC): > 100 µM
TGI (HOP-92 NSCLC): 82.4 µM
TGI (HT29 colon): > 100 µM
TGI (IGROV1 ovarian): > 100 µM
TGI (K-562 leukemia): 39.9 µM
TGI (KM12 colon): > 100 µM
TGI (KM20L2 colon): 46.7 µM
TGI (LOX IMVI melanoma): 92.3 µM
TGI (M19-MEL melanoma): > 100 µM
TGI (MALME-3M melanoma): 35.8 µM
TGI (NCI-H23 lung): > 100 µM
TGI (NCI-H460 lung): > 100 µM
TGI (OVCAR-3 ovarian): > 100 µM
TGI (OVCAR-4 ovarian): > 100 µM
TGI (OVCAR-5 ovarian): > 100 µM
TGI (OVCAR-8 ovarian): > 100 µM
TGI (RXF 393 renal): 79.2 µM
TGI (SF-268 CNS): > 100 µM
TGI (SF-295 CNS): 93.3 µM
TGI (SF-539 CNS): > 100 µM
TGI (SK-MEL-2 melanoma): > 100 µM
TGI (SK-MEL-28 melanoma): > 100 µM
TGI (SK-MEL-5 melanoma): 31.8 µM
TGI (SN12C renal): > 100 µM
TGI (SNB-19 CNS): > 100 µM
TGI (SNB-75 CNS): > 100 µM
TGI (SNB-78 CNS): > 100 µM
TGI (SR leukemia): 51 µM
TGI (SW-620 colon): > 100 µM
TGI (TK-10 renal): > 100 µM
TGI (U251 CNS): > 100 µM
TGI (UACC-257 melanoma): > 100 µM
TGI (UACC-62 melanoma): > 100 µM
TGI (XF 498 CNS): 56.8 µM

CC/C(CC(=O)CCC(=O)Nc1ccc(C)c(C)c1)=N\NC(=O)C(N)=O
TGI (786-0 renal): > 100 µM
TGI (A498 renal): > 100 µM
TGI (A549 NSCLC): > 100 µM
TGI (ACHN renal): > 100 µM
TGI (CAKI-1 renal): > 100 µM
TGI (CCRF-CEM leukemia): > 100 µM
TGI (COLO 205 colon): > 100 µM
TGI (DLD-1 colon): > 100 µM
TGI (DMS 114 small cell lung): > 100 µM
TGI (DMS 273 small cell lung): > 100 µM
TGI (EKVX NSCLC): > 100 µM
TGI (HCT-116 colon): > 100 µM
TGI (HCT-15 colon): > 100 µM
TGI (HL-60(TB) leukemia): > 100 µM
TGI (HOP-18 NSCLC): > 100 µM
TGI (HOP-62 NSCLC): > 100 µM
TGI (HOP-92 NSCLC): > 100 µM
TGI (HT29 colon): > 100 µM
TGI (IGROV1 ovarian): > 100 µM
TGI (K-562 leukemia): > 100 µM
TGI (KM20L2 colon): > 100 µM
TGI (LXFL 529 NSCLC): > 100 µM
TGI (M14 melanoma): > 100 µM
TGI (M19-MEL melanoma): > 100 µM
TGI (MALME-3M melanoma): > 100 µM
TGI (MOLT-4 leukemia): > 100 µM
TGI (NCI-H226 lung): > 100 µM
TGI (NCI-H23 lung): > 100 µM
TGI (NCI-H522 lung): > 100 µM
TGI (OVCAR-3 ovarian): > 100 µM
TGI (OVCAR-4 ovarian): > 100 µM
TGI (OVCAR-5 ovarian): > 100 µM
TGI (OVCAR-8 ovarian): > 100 µM
TGI (RPMI-8226 leukemia): > 100 µM
TGI (SF-268 CNS): > 100 µM
TGI (SF-295 CNS): > 100 µM
TGI (SF-539 CNS): > 100 µM
TGI (SK-MEL-28 melanoma): > 100 µM
TGI (SK-MEL-5 melanoma): > 100 µM
TGI (SK-OV-3 ovarian): > 100 µM
TGI (SN12C renal): > 100 µM
TGI (SNB-19 CNS): > 100 µM
TGI (SNB-75 CNS): > 100 µM
TGI (SNB-78 CNS): > 100 µM
TGI (SR leukemia): > 100 µM
TGI (SW-620 colon): > 100 µM
TGI (TK-10 renal): > 100 µM
TGI (U251 CNS): > 100 µM
TGI (UACC-257 melanoma): > 100 µM
TGI (UACC-62 melanoma): > 100 µM
TGI (UO-31 renal): > 100 µM
TGI (XF 498 CNS): > 100 µM

Brc1ccc(C2SCc3nc4ccccc4n32)cc1 (stereo unspecified)
TGI (786-0 renal): 26 µM
TGI (A549 NSCLC): > 100 µM
TGI (ACHN renal): 40.2 µM
TGI (CAKI-1 renal): 43 µM
TGI (CCRF-CEM leukemia): > 100 µM
TGI (COLO 205 colon): 27.3 µM
TGI (DLD-1 colon): 22.3 µM
TGI (EKVX NSCLC): 33.8 µM
TGI (HCT-116 colon): 19.6 µM
TGI (HCT-15 colon): 24.3 µM
TGI (HL-60(TB) leukemia): 12.4 µM
TGI (HOP-18 NSCLC): 78.5 µM
TGI (HOP-62 NSCLC): 22.4 µM
TGI (HOP-92 NSCLC): 9.66 µM
TGI (HT29 colon): 20.9 µM
TGI (IGROV1 ovarian): 27.3 µM
TGI (K-562 leukemia): > 100 µM
TGI (KM12 colon): 21.1 µM
TGI (LOX IMVI melanoma): 21 µM
TGI (LXFL 529 NSCLC): 22.2 µM
TGI (M14 melanoma): 25.5 µM
TGI (M19-MEL melanoma): 27 µM
TGI (MALME-3M melanoma): 30.2 µM
TGI (MOLT-4 leukemia): > 100 µM
TGI (NCI-H226 lung): 34.1 µM
TGI (NCI-H23 lung): 15.3 µM
TGI (NCI-H460 lung): 27.3 µM
TGI (NCI-H522 lung): 12.4 µM
TGI (OVCAR-3 ovarian): 17 µM
TGI (OVCAR-4 ovarian): 27.4 µM
TGI (OVCAR-5 ovarian): 25.2 µM
TGI (OVCAR-8 ovarian): 26.6 µM
TGI (RPMI-8226 leukemia): 28.6 µM
TGI (RXF 393 renal): 20.9 µM
TGI (SF-268 CNS): 32.9 µM
TGI (SF-295 CNS): 24.8 µM
TGI (SF-539 CNS): 34.3 µM
TGI (SK-MEL-2 melanoma): 30.4 µM
TGI (SK-MEL-28 melanoma): 16.7 µM
TGI (SK-MEL-5 melanoma): 12.5 µM
TGI (SK-OV-3 ovarian): 37.7 µM
TGI (SN12C renal): 27.7 µM
TGI (SNB-19 CNS): 9.02 µM
TGI (SNB-75 CNS): 0.745 µM
TGI (SNB-78 CNS): 22.5 µM
TGI (SR leukemia): 28.3 µM
TGI (SW-620 colon): 29.2 µM
TGI (TK-10 renal): 29.1 µM
TGI (U251 CNS): 25.2 µM
TGI (UACC-62 melanoma): 21.1 µM
TGI (UO-31 renal): 32 µM
TGI (XF 498 CNS): 24.5 µM
